# Entries after “also recorded” stand apart in the source; their conditions may differ.
# Legend:
# NB4 cells [1] = test: NB4 proliferation, MTT assay; format: cell-based, human; settings: 12.5-400 μg/ml
# Experimental: The NB4 cell line (Lanotte et al., Blood 77, 1080 (1991)) was a gift from Dr. Dan Lindner of the Cleveland Clinic Foundation. […] and U937 cell lines were purchased from American Type Culture Collection (Rockville, Md.). These human […] cell lines were maintained in RPMI 1640 medium supplemented with 10% fetal calf serum (FCS). For cell proliferation assays, cells were cultured at 37° C. in 10% FCS medium containing various amounts of sodium stibogluconate for 6 days. The cell numbers in the cultures were determined by an MTT assay as described previously in Mosmann, J. Immunol. Methods 65, 55 (1983).
# NB4 cells [2] = test: NB4 differentiation, NBT reduction; format: cell-based, human
# Experimental: Differentiation of AML cell lines was assessed by their ability to produce superoxide as measured by reduction of NBT to formazan and by analysis of expression of CD11b surface marker by flow cytometry. For NBT reduction, each cell suspension was mixed with an equal volume of solution containing 1 mg/ml of NBT (Sigma) and 2.5 µg/ml of TPA for 30 minutes at 37° C. After incubation, cells containing the purple formazan deposits and cells devoid of NBT-reducing activity (white cells) in each sample were determined by counting 200 cells under microscope. Data is expressed as a percentage based on the following ratio: purple cells/purple+white cells. For analysis of cell surface antigens, cells were exposed to phycoerythrin (PE)-conjugated murine anti-human CD11b (DAKO Corp., Carpinteria, Calif.). Analysis of fluorescence was performed on a FACScan flow cytometer (Beckton Dickinson, Mountain View, Calif.).
# Renca tumors = Renca tumors in Balb/c mice; format: in vivo; settings: end of treatment; listed as SSG
# Experimental: Balb/c and athymic nude Balb/c mice (10 weeks old, female, Taconic Farms, Germantown, N.Y.) were inoculated (s.c.) at the flanks with Renca cells (10^6 cells/site). […] The dose of SSG was similar to the effective daily dose of the drug for the treatment of murine leishmaniasis (Murray, H. W., J. D. Berman, and S. D. Wright. 1988. Immunochemotherapy for intracellular Leishmania donovani infection: gamma interferon plus pentavalent antimony. J Infect Dis 157:973). Tumor volume was measured during the study period and calculated using the formula for a prolate spheroid (V=4/3×a2b) (Lindner, D. J., E. C. Borden, and D. V. Kalvakolanu. 1997. Synergistic antitumor effects of a combination of interferons and retinoic acid on human tumor cells in vitro and in vivo. Clin Cancer Res 3:931). Student's t test was used for assessing the significance of tumor volume differences among differential treatment groups. Mouse viability (daily) and body weights (weekly) were also recorded during the study period. At the end of the study, Renca tumors and major internal organs (heart, kidney, liver, lung and spleen) were harvested for histology and immunohistochemistry analysis.
# SK-N-SH cells = test: SK-N-SH neuroblastoma cell growth, MTT assay; format: cell-based, human; settings: 100 μg/ml, day 6
# Experimental: NIH3T3 (Yi, et al., Blood 85, 87 (1995)), WM9 (Forsberg, et al., Proc. Nat. Acad Sci. USA 90, 393 (1993)), DU145 (Mickey, et al., Cancer Res. 37, 4049 (1977)), LoVo (Drewinko, et al., Cancer Res. 36, 467 (1976)), HEY (Buick, et al., Cancer Res. 45, 3668 (1985)), U251 (Yoshida, et al., Cancer 50, 410 (1982)), A549 (Giard, et al., J. Natl. Cancer Inst. 51, 1417 (1973)) and SK-N-SH (Helson, et al., Cancer Res. 35, 2594 (1975)) cell lines have been described and were cultured in RPMI 1640 supplemented with 10% fetal calf serum (FCS). For measurement of sodium stibogluconate effects on cell growth in vitro, cells were cultured in the absence (−) or presence (+) of various amounts of sodium stibogluconate for 6 days with viable cells quantified by MTT assays (Mosmann, J. Immunol. Methods 65, 55 (1983)). Percentages of growth inhibition by sodium stibogluconate were calculated (.+−.x
smiles,measurement,setting,value
O.O.O.O.O.O.O.O.O.O=C([O-])[C@@H]1[O][Sb]2([O-])([O][Sb]34([OH])[O][C@H]([C@H](O)CO)[C@H]([O]3)[C@H](C(=O)[O-])[O]4)[O][C@H]([C@H](O)CO)[C@@H]1[O]2.[Na+].[Na+].[Na+] [sodium stibogluconate],proliferation of NB4 cells,NB4 cells [1],markedly inhibited
same,NB4 differentiation induction,"NB4 cells [2]; 10 to 400 μg/ml, day 3 or day 6",differentiation induction activity at all of the dosages
same,reversal of NB4 differentiation after drug removal,"NB4 cells [2]; 6 days with drug (10 or 100 μg/ml), washed, 6 days without",not reversed
same,tolerance/survival of treated Balb/c mice,Renca tumors,tolerated; also recorded: all mice in the treatment group survived
same,killing of SK-N-SH cells,SK-N-SH cells,near-complete cell killing

# From patent US20080226596A1, “Therapeutic compositions and methods useful in treating hepatitis” (priority 2006, published 2008)
